Molecules are shown by their SMILES.

Data on six compounds can be found in BindingDB's records for patent WO2022070069 (JANSSEN BIOTECH, INC., 2022).

Dihydroorotate dehydrogenase (quinone), mitochondrial, sequence (Q02127 whole entry): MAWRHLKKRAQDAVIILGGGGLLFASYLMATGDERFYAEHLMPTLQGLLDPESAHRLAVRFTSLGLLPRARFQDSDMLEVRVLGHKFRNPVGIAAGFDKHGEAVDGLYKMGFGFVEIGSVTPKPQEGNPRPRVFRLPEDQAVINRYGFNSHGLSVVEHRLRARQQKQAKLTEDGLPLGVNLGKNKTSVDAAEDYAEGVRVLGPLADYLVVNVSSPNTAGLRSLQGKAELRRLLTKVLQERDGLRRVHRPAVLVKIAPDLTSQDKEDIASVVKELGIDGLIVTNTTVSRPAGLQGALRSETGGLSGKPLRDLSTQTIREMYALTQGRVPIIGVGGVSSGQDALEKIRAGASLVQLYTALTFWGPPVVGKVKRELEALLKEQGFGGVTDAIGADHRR

The test has as its target Dihydroorotate dehydrogenase (quinone), mitochondrial (Homo sapiens, UniProt Q02127). Nature of the test: DHODH enzymatic assay. The method, then:
To detect DHODH enzyme activities, dichloroindophenol (DCIP) is added as the final electron acceptor in the assay. DCIP can accept electrons from the reduced coenzyme Q generated in the assay, or from dihydroorotate (DHO) via FMN by binding presumably to the ubiquinone pocket. DCIP solutions are blue, with an intense absorbance around 600 nm, but becomes colorless upon reduction (J. Biol. Chem. (1986) 261, 11386). The assay buffer contained […], pH 7.5, 150 mM NaCl, 0.5 mM EDTA, and 0.1% Triton X-100 in MilliQ water. Substrate consisting of 20 mM DHO, 5mM CoQ6, and 1mM DCIP in assay buffer, initiates the reaction. The assay is run in end-point mode by quenching the reaction with the potent DHODH inhibitor brequinar. Absorbance measurements were obtained using the BMG Phera Star plate-reading spectrophotomer. Purified human DHODH was purchased from Proteros (cat. No. PR-0044). Chemicals were purchased from Sigma-Aldrich, Teknova, and Avanti Polar Lipids. Liquid handling was performed using Labcyte Echo and Formulatrix Tempest.
With `Cc1cn(-c2cc(O[C@@H](C)C(F)(F)F)c(C(=O)Nc3c(F)cccc3Cl)cc2F)nc1[C@@H](C)O` (relative stereo) [WO2022070069, Example 1], the IC50 (commonly the concentration needed to halve the response being measured) came to 0.48 nM.

`Cc1cn(-c2cc(O[C@@H](C)C(F)(F)F)c(C(=O)Nc3c(F)cccc3Cl)cc2F)nc1[C@H](C)O` (relative stereo) [WO2022070069, Example 2] came in with an IC50 of 0.3 nM.

Consider `Cc1cn(-c2cc(O[C@@H](C)C(F)(F)F)c(C(=O)Nc3c(C)n[nH]c3Cl)cc2F)nc1[C@@H](C)O` (relative stereo) [WO2022070069, Example 4], for which the IC50 turned out to be 0.22 nM.

In the case of `Cc1cn(-c2cc(O[C@@H](C)C(F)(F)F)c(C(=O)Nc3c(C)n[nH]c3Cl)cc2F)nc1[C@H](C)O` (relative stereo) [WO2022070069, Example 5], the IC50 came out at 0.26 nM.

`Cc1cn(-c2cc(O[C@@H](C)C(F)(F)F)c(C(=O)Nc3c(F)cccc3Cl)cc2F)nc1C(C)(C)O` [WO2022070069, Example 3] had an IC50 of 0.5 nM.

`Cc1cn(-c2cc(O[C@@H](C)C(F)(F)F)c(C(=O)Nc3c(C)n[nH]c3Cl)cc2F)nc1C(C)(C)O` [WO2022070069, Example 6] returned an IC50 of 0.38 nM.
